{"source": "patent US20080096970A1", "about": "“Stable Nateglinide Form B Compositions” (priority 2004, published 2008)", "experiment": "Polymorphic stability of nateglinide Form B after processing: absence of Form H by X-ray powder diffraction", "assay_type": "physicochemical", "conditions": "Cu Kα-1, after de-lumping and air jet milling, Form H detectable at about 2 percent by weight or more", "method": "Stability of the nateglinide Form B after processing is determined by an absence of the polymorphic Form H of the compound. This is determined by generating X-ray powder diffraction patterns of samples and checking for the characteristic peaks that correspond to Form H. For the present application, the X-ray diffraction patterns of the figures were obtained with Cu Kα-1 radiation. Nateglinide Form H can be detected at concentrations at least about 2 percent by weight, and quantified at concentrations at least about 5 percent by weight."}
{"smiles": "CC(C)[C@H]1CC[C@H](C(=O)NC(Cc2ccccc2)C(=O)O)CC1", "note": "(single isomer, unassigned; (-)) [nateglinide Form B, (−)-N-[(trans-4-isopropylcyclohexane)-carbonyl]-D-phenylalanine]", "values": [{"measurement": "presence of nateglinide Form H after particle size reduction (stability of Form B)", "result": "not detected"}]}
